Reference: ChEMBL document CHEMBL1201862, “PubChem BioAssay data set” (2004)
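In this assay, cells in 96-well plates receive the compound at five concentrations for 48 hours. Endpoints are linearly interpolated between the surrounding concentrations. GI50 = concentration required for 50% inhibition of growth.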 The source made the active and inactive calls. No stated cut-off is given here; in the data, active = GI50 up to about 1.1 µM and inactive = higher.

Key:
Assay in all cases: DTP human tumour cell line panel, 48 h
SNB-19 = system: SNB-19
LOX IMVI = system: LOX IMVI
OVCAR-8 = system: OVCAR-8
OVCAR-3 = system: OVCAR-3
K562 = system: K562
COLO 205 = system: COLO 205
HCC 2998 = system: HCC 2998
T47D = system: T47D
SK-OV-3 = system: SK-OV-3
OVCAR-5 = system: OVCAR-5
EKVX = system: EKVX
MOLT-4 = system: MOLT-4
SF-268 = system: SF-268
RXF 393 = system: RXF 393
HT-29 = system: HT-29
A549 = system: A549
PC-3 = system: PC-3
NCI-H23 = system: NCI-H23
NCI/ADR-RES = system: NCI/ADR-RES
MDA-MB-231 = system: MDA-MB-231
UACC-62 = system: UACC-62
SNB-75 = system: SNB-75
Hs-578T = system: Hs-578T
HCT-15 = system: HCT-15
CAKI-1 = system: CAKI-1
SK-MEL-28 = system: SK-MEL-28
SF-539 = system: SF-539
BT-549 = system: BT-549
UACC-257 = system: UACC-257
KM12 = system: KM12
HOP-62 = system: HOP-62
RPMI-8226 = system: RPMI-8226
DU-145 = system: DU-145
M14 = system: M14
IGROV-1 = system: IGROV-1
MCF7 = system: MCF7
SN12C = system: SN12C
OVCAR-4 = system: OVCAR-4
NCI-H226 = system: NCI-H226
CCRF-CEM = system: CCRF-CEM
U-251 = system: U-251
786-0 = system: 786-0
UO-31 = system: UO-31
SF-295 = system: SF-295
SK-MEL-5 = system: SK-MEL-5
TK-10 = system: TK-10
HL-60 = system: HL-60
Malme-3M = system: Malme-3M
SW-620 = system: SW-620
HCT-116 = system: HCT-116
A498 = system: A498
NCI-H460 = system: NCI-H460
NCI-H522 = system: NCI-H522
HOP-92 = system: HOP-92
ACHN = system: ACHN
MDA-MB-435 = system: MDA-MB-435

**Q.** What does the source list for `CC(=O)OC12c3ccccc3C(c3ccccc31)C1C(=O)N(c3ccccn3)C(=O)C12` (stereo not given)?
**A.** GI50 (SNB-19): 14.7 µM (inactive); GI50 (LOX IMVI): > 100 µM (inactive); GI50 (OVCAR-8): > 100 µM (inactive); GI50 (OVCAR-3): 28.4 µM (inactive); GI50 (K562): 39.1 µM (inactive); GI50 (COLO 205): 64.6 µM (inactive); GI50 (HCC 2998): 72.6 µM (inactive); GI50 (T47D): 53.3 µM (inactive); GI50 (SK-OV-3): > 100 µM (inactive); GI50 (OVCAR-5): > 100 µM (inactive); GI50 (EKVX): > 100 µM (inactive); GI50 (MOLT-4): 32.8 µM (inactive); GI50 (SF-268): 87.3 µM (inactive); GI50 (RXF 393): > 100 µM (inactive); GI50 (HT-29): 62.4 µM (inactive); GI50 (A549): 62.7 µM (inactive); GI50 (PC-3): 47.9 µM (inactive); GI50 (NCI-H23): > 100 µM (inactive); GI50 (NCI/ADR-RES): 55.2 µM (inactive); GI50 (MDA-MB-231): 77.8 µM (inactive); GI50 (UACC-62): 91.6 µM (inactive); GI50 (SNB-75): 23.8 µM (inactive); GI50 (Hs-578T): 14.3 µM (inactive); GI50 (HCT-15): 69.3 µM; GI50 (CAKI-1): > 100 µM (inactive); GI50 (SK-MEL-28): 85.9 µM (inactive); GI50 (SF-539): > 100 µM (inactive); GI50 (BT-549): 38.8 µM (inactive); GI50 (UACC-257): 31.3 µM (inactive); GI50 (KM12): 50.1 µM (inactive); GI50 (HOP-62): 65.6 µM (inactive); GI50 (RPMI-8226): 27.1 µM (inactive); GI50 (DU-145): > 100 µM (inactive); GI50 (M14): 51.8 µM (inactive); GI50 (IGROV-1): > 100 µM (inactive); GI50 (MCF7): > 100 µM (inactive); GI50 (SN12C): 81.1 µM (inactive); GI50 (OVCAR-4): > 100 µM (inactive); GI50 (NCI-H226): > 100 µM (inactive); GI50 (CCRF-CEM): 57.1 µM (inactive); GI50 (U-251): > 100 µM (inactive); GI50 (786-0): > 100 µM (inactive); GI50 (UO-31): 15.8 µM (inactive); GI50 (SF-295): 58.2 µM (inactive); GI50 (SK-MEL-5): 27.9 µM (inactive); GI50 (TK-10): > 100 µM (inactive); GI50 (HL-60): 33.5 µM (inactive); GI50 (Malme-3M): 31.8 µM (inactive); GI50 (SW-620): > 100 µM (inactive); GI50 (HCT-116): 54.7 µM (inactive)

**Q.** What does the source list for `CN(CCc1ccccn1)c1ccc2c(c1)Cc1ccccc1-2`?
**A.** GI50 (SNB-19): 19.3 µM (inactive); GI50 (LOX IMVI): 16.3 µM (inactive); GI50 (OVCAR-8): 18.4 µM (inactive); GI50 (OVCAR-3): 26.1 µM (inactive); GI50 (K562): 9.31 µM (inactive); GI50 (COLO 205): 15.7 µM (inactive); GI50 (HCC 2998): 29.5 µM (inactive); GI50 (T47D): 25.2 µM (inactive); GI50 (SK-OV-3): 24.2 µM (inactive); GI50 (OVCAR-5): 28.4 µM (inactive); GI50 (EKVX): 16.6 µM (inactive); GI50 (A498): 16.8 µM (inactive); GI50 (MOLT-4): 5.42 µM (inactive); GI50 (SF-268): 6.5 µM (inactive); GI50 (RXF 393): 25.1 µM (inactive); GI50 (HT-29): 23.1 µM (inactive); GI50 (A549): 13.6 µM (inactive); GI50 (PC-3): 2.92 µM (inactive); GI50 (NCI-H460): 5.75 µM (inactive); GI50 (NCI-H23): 27.7 µM (inactive); GI50 (NCI/ADR-RES): 26.9 µM (inactive); GI50 (MDA-MB-231): 3.09 µM (inactive); GI50 (UACC-62): 10.6 µM (inactive); GI50 (NCI-H522): 8.69 µM (inactive); GI50 (SNB-75): 17.9 µM (inactive); GI50 (Hs-578T): 4.54 µM (inactive); GI50 (HCT-15): 3.43 µM; GI50 (CAKI-1): 61.4 µM (inactive); GI50 (SK-MEL-28): 29.2 µM (inactive); GI50 (HOP-92): 10.2 µM (inactive); GI50 (BT-549): 14.7 µM (inactive); GI50 (UACC-257): 26.2 µM (inactive); GI50 (KM12): 14.4 µM (inactive); GI50 (HOP-62): 16.1 µM (inactive); GI50 (RPMI-8226): 14.1 µM (inactive); GI50 (DU-145): 43.7 µM (inactive); GI50 (M14): 26.7 µM (inactive); GI50 (IGROV-1): 16.1 µM (inactive); GI50 (MCF7): 20.1 µM (inactive); GI50 (SN12C): 33.8 µM (inactive); GI50 (OVCAR-4): 22.5 µM (inactive); GI50 (NCI-H226): 14.9 µM (inactive); GI50 (CCRF-CEM): 10.2 µM (inactive); GI50 (U-251): 5.35 µM (inactive); GI50 (ACHN): 22.5 µM (inactive); GI50 (786-0): 25.8 µM (inactive); GI50 (UO-31): 38.2 µM (inactive); GI50 (SF-295): 12.1 µM (inactive); GI50 (SK-MEL-5): 12.6 µM (inactive); GI50 (TK-10): 31.5 µM (inactive); GI50 (HL-60): 20.4 µM (inactive); GI50 (Malme-3M): 9.68 µM (inactive); GI50 (MDA-MB-435): 31 µM (inactive); GI50 (SW-620): 48.4 µM (inactive); GI50 (HCT-116): 11.1 µM (inactive)
